From EPA's CvTdb concentration-time database
Values belong to the molecule of their own block, whether it stands above or below them.

How the values were obtained:
Mouse [1] = test: concentration in plasma after dosing; settings: 5 min; dosed: 2,4-Dichlorophenoxyacetic acid; 2.0 mg/kg; oral; Male; B6C3F1
Mouse [2] = test: concentration in plasma after dosing; settings: 2 h; dosed: 2-Hydroxy-4-methoxybenzophenone; 50 mg/kg; iv; Male; B6C3F1
Mouse [3] = test: concentration in plasma after dosing; settings: 2 h; dosed: 2-Hydroxy-4-methoxybenzophenone; 250 mg/kg; oral; Female; B6C3F1
Mouse [4] = test: concentration in plasma after dosing; settings: 3 h; dosed: 2-Hydroxy-4-methoxybenzophenone; 50 mg/kg; iv; Male; B6C3F1
Rat [5] = test: concentration in plasma after dosing; settings: 6 h; dosed: 2-Hydroxy-4-methoxybenzophenone; 500 mg/kg; oral; Male; F344
Rat [6] = test: concentration in plasma after dosing; settings: dosed: 2-Hydroxy-4-methoxybenzophenone, 250 mg/kg, oral, Female, F344
Mouse [7] = test: concentration in plasma after dosing; settings: 2 h; dosed: 2-Hydroxy-4-methoxybenzophenone; 500 mg/kg; oral; Female; B6C3F1
Rat [8] = test: concentration in plasma after dosing; settings: dosed: Methyleugenol, 37 mg/kg, iv, Male, F344
Rat [9] = test: concentration in plasma after dosing; settings: dosed: Methyleugenol, 37 mg/kg, iv, Male, F344; remark: listed apart in the source
Rat [10] = test: concentration in plasma after dosing; settings: 1 h; dosed: Methyleugenol; 37 mg/kg; oral; Male; F344/N
Rat [11] = test: concentration in brain after dosing; settings: 3 h; dosed: Perfluorohexane-1-sulphonic acid – potassium salt; 16 mg/kg; oral; Female; F344
Rat [12] = test: concentration in liver after dosing; settings: 192 h; dosed: Perfluorohexane-1-sulphonic acid – potassium salt; 16 mg/kg; oral; Female; F344
Rat [13] = test: concentration in plasma after dosing; settings: dosed: Perfluorohexane-1-sulphonic acid – potassium salt, 4 mg/kg, oral, Male, F344
Rat [14] = test: concentration in kidney after dosing; settings: 1200 h; dosed: Perfluorohexane-1-sulphonic acid – potassium salt; 16 mg/kg; oral; Male; Harlan Sprague Dawley
Rat [15] = test: concentration in liver after dosing; settings: 6 h; dosed: Perfluorohexane-1-sulphonic acid – potassium salt; 16 mg/kg; oral; Female; F344
Rat [16] = test: concentration in kidney after dosing; settings: 3 h; dosed: Perfluorohexane-1-sulphonic acid – potassium salt; 16 mg/kg; oral; Female; F344
Rat [17] = test: concentration in liver after dosing; settings: 6 h; dosed: Perfluorohexane-1-sulphonic acid – potassium salt; 16 mg/kg; oral; Female; F344; remark: listed apart in the source
Rat [18] = test: concentration in liver after dosing; settings: 528 h; dosed: Perfluorohexane-1-sulphonic acid – potassium salt; 16 mg/kg; oral; Female; F344
Rat [19] = test: concentration in plasma after dosing; settings: 6 h; dosed: Primidone; 80 mg/kg; oral; Female; F344
Rat [20] = test: concentration in plasma after dosing; settings: 0.25 h; dosed: Primidone; 30 mg/kg; oral; Female; F344
Rat [21] = test: concentration in plasma after dosing; settings: 6 h; dosed: Primidone; 30 mg/kg; oral; Female; F344
Rat [22] = test: concentration in plasma after dosing; settings: 2 h; dosed: Pyridine; 5 mg/kg; oral; Male; F344
Rat [23] = test: concentration in plasma after dosing; settings: 2 h; dosed: Pyridine; 5 mg/kg; iv; Male; F344
Rat [24] = test: concentration in plasma after dosing; settings: dosed: Pyridine, 25 mg/kg, oral, Male, F344
Rat [25] = test: concentration in plasma after dosing; settings: dosed: Pyridine, 25 mg/kg, oral, Female, Harlan Sprague-Dawley
Rat [26] = test: concentration in plasma after dosing; settings: dosed: Pyridine, 5 mg/kg, oral, Male, F344
Rat [27] = test: concentration in plasma after dosing; settings: 2 h; dosed: Pyridine; 5 mg/kg; oral; Male; F344; remark: listed apart in the source
Rat [28] = test: concentration in brain after dosing; settings: 2 h; dosed: 76231-76-0; 3.0 mg/kg; iv; Female; F344
Rat [29] = test: concentration in brain after dosing; settings: 0.5 h; dosed: alpha-Thujone; 25 mg/kg; oral; Male; Harlan Sprague Dawley
Rat [30] = test: concentration in brain after dosing; settings: 0.5 h; dosed: alpha-Thujone; 25 mg/kg; oral; Female; Harlan Sprague Dawley
Rat [31] = test: concentration in brain after dosing; settings: 5 min; dosed: alpha-Thujone; 50 mg/kg; oral; Female; Harlan Sprague Dawley
Rat [32] = test: concentration in plasma after dosing; settings: 12 h; dosed: alpha-Thujone; 25 mg/kg; oral; Male; Harlan Sprague Dawley
Rat [33] = test: concentration in plasma after dosing; settings: 10 min; dosed: alpha-Thujone; 50 mg/kg; oral; Female; Harlan Sprague Dawley
Rat [34] = test: concentration in brain after dosing; settings: 10 min; dosed: alpha-Thujone; 25 mg/kg; oral; Male; Harlan Sprague Dawley
Rat [35] = test: concentration in brain after dosing; settings: 10 min; dosed: alpha-Thujone; 50 mg/kg; oral; Female; Harlan Sprague Dawley
Rat [36] = test: concentration in plasma after dosing; settings: 5 min; dosed: alpha-Thujone; 25 mg/kg; oral; Male; Harlan Sprague Dawley
Rat [37] = test: concentration in brain after dosing; settings: 1.5 h; dosed: alpha-Thujone; 25 mg/kg; oral; Male; Harlan Sprague Dawley
Rat [38] = test: concentration in brain after dosing; settings: 3 h; dosed: alpha-Thujone; 50 mg/kg; oral; Female; Harlan Sprague Dawley
Rat [39] = test: concentration in plasma after dosing; settings: 0.5 h; dosed: alpha-Thujone; 50 mg/kg; oral; Female; Harlan Sprague Dawley

Structure (SMILES): O=C(O)COc1ccc(Cl)cc1Cl [2,4-Dichlorophenoxyacetic acid]
- concentration in plasma (Mouse [1]): 4560 ng/mL

- concentration in plasma (Mouse [2]): 266 ng/mL
- concentration in plasma (Mouse [3]): 472 ng/mL
- concentration in plasma (Mouse [4]): 202 ng/mL
- concentration in plasma (Rat [5]): 245 ng/mL
- concentration in plasma (Rat [6]; 0.25 h): 359 ng/mL
- concentration in plasma (Rat [6]; 4 h): 135 ng/mL
- concentration in plasma (Mouse [7]): 135 ng/mL
Structure (SMILES): O=C(c1ccccc1)c1ccc(O)cc1O [2,4-Dihydroxybenzophenone]

- concentration in plasma (Rat [8]; 5 min): 29200 ng/mL
- concentration in plasma (Rat [8]; 3 h): 263 ng/mL
- concentration in plasma (Rat [9]; 5 min): 28800 ng/mL
- concentration in plasma (Rat [9]; 3 h): 226 ng/mL
- concentration in plasma (Rat [10]): 63.4 ng/mL
Structure (SMILES): C=CCc1ccc(OC)c(OC)c1 [Methyleugenol]

Structure (SMILES): O=S(=O)([O-])C(F)(F)C(F)(F)C(F)(F)C(F)(F)C(F)(F)C(F)(F)F.[K+] [Perfluorohexane-1-sulphonic acid – potassium salt]
- concentration in brain (Rat [11]): 1600 ng/g
- concentration in liver (Rat [12]): 38200 ng/g
- concentration in plasma (Rat [13]; 6 h): 28700 ng/mL
- concentration in plasma (Rat [13]; 192 h): 19100 ng/mL
- concentration in kidney (Rat [14]): 4040 ng/g
- concentration in liver (Rat [15]): 87400 ng/g
- concentration in kidney (Rat [16]): 29100 ng/g
- concentration in liver (Rat [17]): 80400 ng/g
- concentration in liver (Rat [18]): 20900 ng/g

- concentration in plasma (Rat [19]): 43900 ng/mL
- concentration in plasma (Rat [20]): 17700 ng/mL
- concentration in plasma (Rat [21]): 12100 ng/mL
Structure (SMILES): CCC1(c2ccccc2)C(=O)NCNC1=O [Primidone]

Structure (SMILES): c1ccncc1 [Pyridine]
- concentration in plasma (Rat [22]): 2710 ng/mL
- concentration in plasma (Rat [23]): 2920 ng/mL
- concentration in plasma (Rat [24]; 5 min): 4220 ng/mL
- concentration in plasma (Rat [24]; 4 h): 15500 ng/mL
- concentration in plasma (Rat [25]; 1 h): 21100 ng/mL
- concentration in plasma (Rat [25]; 8 h): 15100 ng/mL
- concentration in plasma (Rat [26]; 1 h): 3160 ng/mL
- concentration in plasma (Rat [26]; 8 h): 1170 ng/mL
- concentration in plasma (Rat [27]): 2730 ng/mL

Structure (SMILES): CC(C)[C@]12CC(=O)[C@H](C)[C@H]1C2 [alpha-Thujone]
- concentration in brain (Rat [28]): 19.3 ng/g
- concentration in brain (Rat [29]): 883 ng/g
- concentration in brain (Rat [30]): 987 ng/g
- concentration in brain (Rat [31]): 105 ng/g
- concentration in plasma (Rat [32]): 20.5 ng/mL
- concentration in plasma (Rat [33]): 835 ng/mL
- concentration in brain (Rat [34]): 731 ng/g
- concentration in brain (Rat [35]): 2340 ng/g
- concentration in plasma (Rat [36]): 93.4 ng/mL
- concentration in brain (Rat [37]): 388 ng/g
- concentration in brain (Rat [38]): 858 ng/g
- concentration in plasma (Rat [39]): 5000 ng/mL
